Measured values taken from patent US20170172929A1, “PHARMACEUTICAL COMPOSITION CONTAINING PREGABALIN WITH IMPROVED STABILITY AND METHOD FOR PREPARING SAME” (Yungjin Pharm. Co., Ltd., priority 2014, published 2017).
Where two headings read alike, the source gives them in different places.

How the values were obtained:
[1] = severe conditions (60°C), airtight glass vial, excipient mixed 1:1
Procedure: 1 g of pregabalin and each 1 g of the excipients given in Table 14 were mixed at room temperature, and the mixture in the form of powder was air-tightened in a glass vial, and this vial was stored under severe conditions (60° C.) for 2 weeks, and then a percentage (%) of lactam related compounds (PRG-Lactam) relative to the main peak was calculated by HPLC. The analysis wavelength was 210 nm, a mixture (0.04 M ammonium phosphate ((NH4)2HPO4) buffer solution:acetonitrile:methanol=84:5:11) containing 5 mM sodium 1-octanesulfonate used as a mobile phase A, and acetonitrile was used as a mobile phase B. The mobile phase A was maintained at 100% for initial 6 minutes, and the m phase A was maintained from 100% to 70% and the mobile phase B was maintained from 0% to 30% for 6˜45 minutes, and then the mobile phase A was maintained at 70% and the mobile phase B was maintained at 0% for 45˜50 minutes. Post time was 10 minutes. A flow rate was adjusted (0.9 min/mL) so that a retention time of pregabalin was about 8 minutes. A column was a stainless steel column having an internal diameter of about 4.6 mm and a length of about 250 mm, packed with 5 μm-octadecylsilyl silica gel for liquid chromatography.

[2] = cited from earlier work

CC(C)C[C@H](CN)CC(=O)O [Pregabalin, (S)-3-(aminomethyl)-5-methylhexanoic acid]
% of Peak area of PRG-Lactam relative to peak area of pregabalin ([1]; 0 weeks): 0.074%
% of Peak area of PRG-Lactam relative to peak area of pregabalin ([1]; 1 week): 0.196%
% of Peak area of PRG-Lactam relative to peak area of pregabalin ([1]; 2 weeks): 0.329%
Time to steady-state blood levels ([2]; after administration): 24˜48 hours
Average absorption time ([2]; in vivo): 6 h
Half-life ([2]; normal person): about 6 hours
Time to reach peak blood levels ([2]; oral immediate release): ≤ 1.5 h
